PubChem BioAssay (NCI)
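1) Cells in 96-well plates. 2) Compound, 48 h, 5 concentrations. 3) Linear interpolation between surrounding doses. 4) Unreached endpoint = highest concentration. GI50 is the concentration that inhibits growth by half. TGI: concentration producing complete growth inhibition.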

Experiments:
Experiment in all cases: growth of human tumour cells (NCI), 48 h
CAKI-1 renal = test system: CAKI-1 renal
T-47D breast = test system: T-47D breast
OVCAR-8 ovarian = test system: OVCAR-8 ovarian
UACC-62 melanoma = test system: UACC-62 melanoma
MCF7 breast = test system: MCF7 breast
OVCAR-4 ovarian = test system: OVCAR-4 ovarian
786-0 renal = test system: 786-0 renal
DU-145 prostate = test system: DU-145 prostate
NCI-H226 lung = test system: NCI-H226 lung
OVCAR-3 ovarian = test system: OVCAR-3 ovarian
SK-MEL-2 melanoma = test system: SK-MEL-2 melanoma

## COc1ccc(N2C(=O)CC(C3CC(C(C)(C)C)CCC3=O)C2=O)cc1 (stereo not given)
CAKI-1 renal
  TGI: > 100 µM
T-47D breast
  TGI: > 100 µM
OVCAR-8 ovarian
  TGI: > 100 µM
UACC-62 melanoma
  TGI: > 100 µM
MCF7 breast
  TGI: > 100 µM
OVCAR-4 ovarian
  TGI: > 100 µM
786-0 renal
  TGI: > 100 µM
DU-145 prostate
  TGI: > 100 µM
NCI-H226 lung
  TGI: > 100 µM

## Nc1c2c(nc3cc(F)c(F)cc13)CCC2
OVCAR-3 ovarian
  TGI: > 100 µM
CAKI-1 renal
  TGI: > 100 µM
T-47D breast
  TGI: > 100 µM
OVCAR-8 ovarian
  TGI: > 100 µM
UACC-62 melanoma
  TGI: > 100 µM
SK-MEL-2 melanoma
  TGI: > 100 µM
MCF7 breast
  TGI: > 100 µM
OVCAR-4 ovarian
  TGI: > 100 µM
786-0 renal
  TGI: > 100 µM
DU-145 prostate
  TGI: > 100 µM
NCI-H226 lung
  TGI: > 100 µM

## COc1ccc(C2COc3cc(OC(C)=O)c(OC(C)=O)cc3C2)cc1 (stereo not given)
OVCAR-3 ovarian
  TGI: 39.9 µM
CAKI-1 renal
  TGI: 51.1 µM
OVCAR-8 ovarian
  TGI: 44.9 µM
UACC-62 melanoma
  TGI: 43.5 µM
SK-MEL-2 melanoma
  TGI: 58.7 µM
MCF7 breast
  TGI: 62.7 µM
OVCAR-4 ovarian
  TGI: 36.8 µM
NCI-H226 lung
  TGI: 52.9 µM

## CN(C)CCCNC(=O)c1cc2[nH]c3c(cnc4ccc([N+](=O)[O-])cc43)c(=O)c2n1C
OVCAR-3 ovarian
  GI50: 19.4 µM
  TGI: 45.9 µM
T-47D breast
  GI50: 19.3 µM
  TGI: 39.2 µM
OVCAR-8 ovarian
  GI50: 20.2 µM
  TGI: 43.2 µM
SK-MEL-2 melanoma
  GI50: > 100 µM
  TGI: > 100 µM
MCF7 breast
  GI50: 15.5 µM
  TGI: 28.9 µM
OVCAR-4 ovarian
  GI50: 14 µM
  TGI: 31.6 µM
DU-145 prostate
  GI50: 12.6 µM
  TGI: 25.1 µM
NCI-H226 lung
  GI50: 49.8 µM
  TGI: > 100 µM

## O=Cc1cn(CCCCCCCCCCCCn2cc(C=O)c3ccccc32)c2ccccc12
OVCAR-3 ovarian
  TGI: > 100 µM
CAKI-1 renal
  TGI: > 100 µM
OVCAR-8 ovarian
  TGI: > 100 µM
UACC-62 melanoma
  TGI: > 100 µM
SK-MEL-2 melanoma
  TGI: > 100 µM
MCF7 breast
  TGI: > 100 µM
786-0 renal
  TGI: > 100 µM
DU-145 prostate
  TGI: > 100 µM
NCI-H226 lung
  TGI: > 100 µM

## N#Cc1c(-c2ccc(Cl)cc2)c2c([nH]c1=O)-c1ccccc1SC2
OVCAR-3 ovarian
  TGI: 92.7 µM
CAKI-1 renal
  TGI: > 100 µM
OVCAR-8 ovarian
  TGI: > 100 µM
UACC-62 melanoma
  TGI: > 100 µM
SK-MEL-2 melanoma
  TGI: > 100 µM
MCF7 breast
  TGI: > 100 µM
OVCAR-4 ovarian
  TGI: > 100 µM
786-0 renal
  TGI: > 100 µM
DU-145 prostate
  TGI: > 100 µM
NCI-H226 lung
  TGI: > 100 µM

## CCCCCCCCCC1(N=[N+]=[N-])C(=O)c2ccccc2N(C)C1=O (stereo not given)
OVCAR-3 ovarian
  TGI: 56.4 µM
CAKI-1 renal
  TGI: > 100 µM
T-47D breast
  TGI: 9.17 µM
UACC-62 melanoma
  TGI: 80.5 µM
SK-MEL-2 melanoma
  TGI: 69 µM
MCF7 breast
  TGI: > 100 µM
OVCAR-4 ovarian
  TGI: > 100 µM
786-0 renal
  TGI: > 100 µM
DU-145 prostate
  TGI: > 100 µM

## CC(C)(C)[Si](C)(C)OCC1OC(n2ccc(N)nc2=O)C(O[Si](C)(C)C(C)(C)C)C1O[Si](C)(C)C(C)(C)C (stereo not given)
OVCAR-3 ovarian
  TGI: 3.3 µM
T-47D breast
  TGI: 11.6 µM
OVCAR-8 ovarian
  TGI: 5.68 µM
UACC-62 melanoma
  TGI: 3.64 µM
SK-MEL-2 melanoma
  TGI: 4.89 µM
MCF7 breast
  TGI: 5.33 µM
OVCAR-4 ovarian
  TGI: 2.21 µM
786-0 renal
  TGI: 3.01 µM
DU-145 prostate
  TGI: 23.7 µM
NCI-H226 lung
  TGI: 2.86 µM

## CCCC(=O)n1[nH]c(=O)n(-c2ccc(Cl)cc2)c1=O
OVCAR-3 ovarian
  TGI: > 100 µM
CAKI-1 renal
  TGI: > 100 µM
T-47D breast
  TGI: > 100 µM
OVCAR-8 ovarian
  TGI: > 100 µM
UACC-62 melanoma
  TGI: > 100 µM
SK-MEL-2 melanoma
  TGI: > 100 µM
MCF7 breast
  TGI: > 100 µM
OVCAR-4 ovarian
  TGI: > 100 µM
786-0 renal
  TGI: > 100 µM
DU-145 prostate
  TGI: > 100 µM
NCI-H226 lung
  TGI: > 100 µM

## Oc1c(C2=NNC(c3ccc(Cl)cc3Cl)C2)ccc2ccccc12 (stereo not given)
OVCAR-3 ovarian
  TGI: > 100 µM
CAKI-1 renal
  TGI: > 100 µM
T-47D breast
  TGI: > 100 µM
OVCAR-8 ovarian
  TGI: > 100 µM
UACC-62 melanoma
  TGI: > 100 µM
SK-MEL-2 melanoma
  TGI: > 100 µM
MCF7 breast
  TGI: > 100 µM
OVCAR-4 ovarian
  TGI: > 100 µM
786-0 renal
  TGI: > 100 µM
DU-145 prostate
  TGI: > 100 µM
NCI-H226 lung
  TGI: > 100 µM

## CCCCN(CCCC)CC(O)c1cc(-c2ccc(C(F)(F)F)cc2)nc(-c2ccc(C(F)(F)F)cc2)c1 (stereo not given)
OVCAR-3 ovarian
  TGI: > 100 µM
CAKI-1 renal
  TGI: > 100 µM
T-47D breast
  TGI: > 100 µM
OVCAR-8 ovarian
  TGI: > 100 µM
UACC-62 melanoma
  TGI: > 100 µM
SK-MEL-2 melanoma
  TGI: > 100 µM
OVCAR-4 ovarian
  TGI: > 100 µM
786-0 renal
  TGI: > 100 µM
DU-145 prostate
  TGI: > 100 µM

## COc1cc(OC)c(-c2ccc(OCc3ccccc3)c3c(OC)cc(C)cc23)c2c1C(C)=N[C@H](C)C2
OVCAR-3 ovarian
  TGI: 4.08 µM
CAKI-1 renal
  TGI: > 12.5 µM
OVCAR-8 ovarian
  TGI: 3.68 µM
UACC-62 melanoma
  TGI: 3.84 µM
SK-MEL-2 melanoma
  TGI: 4.09 µM
OVCAR-4 ovarian
  TGI: 4.01 µM
786-0 renal
  TGI: 3.8 µM
DU-145 prostate
  TGI: 4.16 µM
NCI-H226 lung
  TGI: 5.52 µM

## O=C1C(Cl)N(c2ccc(Cl)cc2)C1c1c[nH]c2ccccc12 (stereo not given)
OVCAR-3 ovarian
  TGI: 36.1 µM
OVCAR-8 ovarian
  TGI: > 100 µM
UACC-62 melanoma
  TGI: 68.8 µM
SK-MEL-2 melanoma
  TGI: 29.3 µM
OVCAR-4 ovarian
  TGI: > 100 µM

## NC1CC(=O)c2c(Br)csc21 (stereo not given)
OVCAR-3 ovarian
  TGI: > 100 µM
CAKI-1 renal
  TGI: > 100 µM
T-47D breast
  TGI: > 100 µM
OVCAR-8 ovarian
  TGI: > 100 µM
UACC-62 melanoma
  TGI: 58.7 µM
SK-MEL-2 melanoma
  TGI: > 100 µM
MCF7 breast
  TGI: > 100 µM
786-0 renal
  TGI: > 100 µM
DU-145 prostate
  TGI: > 100 µM

## CN=c1nc2sc3c(c2c(NC(=S)NC)s1)CCCC3
OVCAR-3 ovarian
  TGI: > 100 µM
CAKI-1 renal
  TGI: > 100 µM
UACC-62 melanoma
  TGI: > 100 µM
SK-MEL-2 melanoma
  TGI: > 100 µM
MCF7 breast
  TGI: > 100 µM
OVCAR-4 ovarian
  TGI: > 100 µM
786-0 renal
  TGI: > 100 µM
DU-145 prostate
  TGI: > 100 µM
NCI-H226 lung
  TGI: > 100 µM

## O=C(O)c1ccc(Nc2c3ccccc3nc3ccccc23)cc1
OVCAR-3 ovarian
  TGI: > 100 µM
CAKI-1 renal
  TGI: > 100 µM
OVCAR-8 ovarian
  TGI: > 100 µM
UACC-62 melanoma
  TGI: > 100 µM
SK-MEL-2 melanoma
  TGI: > 100 µM
MCF7 breast
  TGI: > 100 µM
OVCAR-4 ovarian
  TGI: > 100 µM
NCI-H226 lung
  TGI: > 100 µM

## CC(=O)O[C@H]1C[C@H]2[C@@H](OC(C)=O)/C=C3\C[C@](C)(C(=O)[C@H](O)C(=C1C)C2(C)C)[C@@H](O)C[C@@H]3OC(=O)[C@H](O)[C@H](c1ccccc1)N(C)C
OVCAR-3 ovarian
  TGI: > 100 µM
CAKI-1 renal
  TGI: > 100 µM
T-47D breast
  TGI: > 100 µM
OVCAR-8 ovarian
  TGI: > 100 µM
UACC-62 melanoma
  TGI: > 100 µM
MCF7 breast
  TGI: > 100 µM
OVCAR-4 ovarian
  TGI: > 100 µM
786-0 renal
  TGI: > 100 µM
DU-145 prostate
  TGI: > 100 µM
NCI-H226 lung
  TGI: > 100 µM

## CCOc1cc2c(OCc3ccccc3)cc3c4cc(OC)c(OC)cc4c[n+](C)c3c2cc1OC
OVCAR-3 ovarian
  TGI: 6.17 µM
CAKI-1 renal
  TGI: > 69.4 µM
T-47D breast
  TGI: > 100 µM
OVCAR-8 ovarian
  TGI: 5.6 µM
SK-MEL-2 melanoma
  TGI: 2.59 µM
MCF7 breast
  TGI: 4.44 µM
OVCAR-4 ovarian
  TGI: > 100 µM
786-0 renal
  TGI: 26.6 µM
DU-145 prostate
  TGI: 23.2 µM
NCI-H226 lung
  TGI: 9.71 µM

## COc1ccc(N2C(=O)C(=O)N(c3ccccc3[N+](=O)[O-])C2=S)cc1
CAKI-1 renal
  TGI: > 100 µM
T-47D breast
  TGI: 74.4 µM
OVCAR-8 ovarian
  TGI: 44.9 µM
UACC-62 melanoma
  TGI: 32.5 µM
SK-MEL-2 melanoma
  TGI: 46 µM
OVCAR-4 ovarian
  TGI: 58.5 µM
786-0 renal
  TGI: > 100 µM
DU-145 prostate
  TGI: > 100 µM
NCI-H226 lung
  TGI: > 100 µM

## COc1cccc2c1OC(c1ccc(Cl)cc1)C([N+](=O)[O-])=C2 (stereo not given)
OVCAR-3 ovarian
  TGI: 7.08 µM
CAKI-1 renal
  TGI: 10.7 µM
T-47D breast
  TGI: 9.13 µM
OVCAR-8 ovarian
  TGI: 10.2 µM
UACC-62 melanoma
  TGI: 10.4 µM
OVCAR-4 ovarian
  TGI: 6.2 µM
786-0 renal
  TGI: 3.63 µM
DU-145 prostate
  TGI: 13.2 µM

## C=C1C(=O)C[C@H]2C(=C)C(=O)O[C@@H]2C2C1CC[C@@]2(C)O (stereo not given in full)
OVCAR-3 ovarian
  TGI: 35.8 µM
CAKI-1 renal
  TGI: 40.3 µM
T-47D breast
  TGI: 68.8 µM
OVCAR-8 ovarian
  TGI: > 100 µM
UACC-62 melanoma
  TGI: 31.2 µM
SK-MEL-2 melanoma
  TGI: 56.6 µM
MCF7 breast
  TGI: 36.1 µM
786-0 renal
  TGI: 77.7 µM
DU-145 prostate
  TGI: > 100 µM
NCI-H226 lung
  TGI: 54.3 µM
